Marks after values point to notes of the source that are not given here.
How the values were obtained:
Format in all cases: in vivo
Settings in all cases: 100 = 100% disease control
[1] = system: Botrytis cinerea; experiment: Test C: tomato Botrytis on tomato seedlings, sprayed the day before inoculation, visual disease rating
Outline: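 Tomato seedlings were sprayed until run-off with test suspensions in acetone/water (50/50) carrying 250 ppm polyhydric alcohol ester surfactant. Standard dose was 200 ppm, with 40 ppm for marked entries.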

[2] = system: Alternaria solani; experiment: Test D: tomato early blight, sprayed the day before inoculation, visual disease rating
Outline: (§1)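 200 ppm run-off spray (500 g/ha equivalent); * = 40 ppm. Vehicle: acetone/water 50/50, 250 ppm Trem® 014.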

[3] = system: Septoria nodorum; experiment: Test F: wheat glume blotch on wheat seedlings, sprayed the day before inoculation, visual disease rating
Outline: as §1

[4] = system: Septoria tritici; experiment: Test G: wheat leaf blotch on wheat seedlings, sprayed the day before inoculation, visual disease rating
Outline: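 Visual disease ratings taken 19 days after transfer to a 20° C growth chamber, following 48 h in saturated atmosphere at 24° C. Seedlings had been sprayed to run-off one day before spore inoculation. Dose 200 ppm, or 40 ppm where starred.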

[5] = system: Puccinia recondita f. sp. tritici; experiment: Test H: wheat leaf rust, test suspension sprayed after inoculation of wheat seedlings, visual disease rating
Outline: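 Wheat seedlings inoculated with P. recondita spores, held 24 h saturated at 20 °C, then 2 days in growth chamber at 20 °C; compound suspension (acetone/water with Trem 014) sprayed to run-off afterwards. Rated visually; 200 ppm (≈500 g/ha) unless marked *, which denotes 40 ppm.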

[6] = system: Puccinia recondita f. sp. tritici; experiment: Test I: wheat leaf rust on wheat seedlings, sprayed the day before inoculation, visual disease rating
Outline: as §1

[7] = system: Erysiphe graminis f. sp. tritici; experiment: Test J: wheat powdery mildew on wheat seedlings, sprayed the day before inoculation, visual disease rating
Outline: as §1

[8] = 40 ppm (marked *), 0 = no control
[9] = 200 ppm, 0 = no control relative to controls

| SMILES | Test C disease control rating [1, 9] [%] | Test D disease control rating [2, 9] [%] | Test F disease control rating [3, 9] [%] | Test G disease control rating [4, 9] [%] | Test H disease control rating [5, 9] [%] | Test I disease control rating [6, 9] [%] | Test J disease control rating [7, 9] [%] | further results |
| --- | --- | --- | --- | --- | --- | --- | --- | --- |
| COc1cc(F)c(-c2c(Cl)nc(Cl)n2Cc2ccc(C)cc2)c(F)c1 [compound 291] | – | – | – | – | – | – | – | Test C disease control rating ([1]; 200 ppm, 0 = no control): 99%; Test D disease control rating ([2]; 200 ppm, 0 = no control): 80%; Test F disease control rating ([3]; 200 ppm, 0 = no control): 0%; Test G disease control rating ([4]; 200 ppm, 0 = no control): 94%; Test H disease control rating ([5]; 200 ppm, 0 = no control): 6%; Test I disease control rating ([6]; 200 ppm, 0 = no control): 98%; Test J disease control rating ([7]; 200 ppm, 0 = no control): 94% |
| COc1ccc(F)c(-c2c(Cl)nc(C)n2-c2ccc(C)cc2)c1F [compound 333] | – | – | – | – | – | – | – | Test C disease control rating [1, 8]: 100* %; Test D disease control rating [2, 8]: 100* %; Test F disease control rating [3, 8]: 99* %; Test G disease control rating [4, 8]: 91* %; Test H disease control rating [5, 8]: 0* %; Test I disease control rating [6, 8]: 100* %; Test J disease control rating [7, 8]: 100* % |
| COc1ccc(F)c(-c2c(Cl)nc(C)n2-c2ccc(F)cc2)c1F [compound 334] | – | – | – | – | – | – | – | Test C disease control rating [1, 8]: 100* %; Test D disease control rating [2, 8]: 100* %; Test F disease control rating [3, 8]: 90* %; Test G disease control rating [4, 8]: 93* %; Test H disease control rating [5, 8]: 0* %; Test I disease control rating [6, 8]: 100* %; Test J disease control rating [7, 8]: 100* % |
| COc1cc(F)c(-c2cnc(Cl)n2-c2ccc(C(F)(F)F)nc2)c(F)c1 [compound 699] | 100 | 99 | 0 | 99 | 0 | 41 | 99 | – |
| Fc1ccc(F)c(-c2c(Br)nc(Cl)n2-c2ccc(Cl)cc2)c1Cl [compound 385] | – | – | – | – | – | – | – | Test C disease control rating [1, 8]: 99* %; Test D disease control rating [2, 8]: 99* %; Test F disease control rating [3, 8]: 0* %; Test G disease control rating [4, 8]: 95* %; Test H disease control rating [5, 8]: 0* %; Test I disease control rating [6, 8]: 95* %; Test J disease control rating [7, 8]: 99* % |
| Cc1nc(Cl)n(-c2ccc(Cl)c(F)c2)c1-c1ccnc(Br)c1 [compound 354] | 100 | 99 | 0 | 93 | 0 | 98 | 97 | – |
| COc1ccc(-c2c(Cl)ncn2-c2ccc(F)cc2)c(Cl)c1 [compound 726] | 99 | 99 | 0 | 99 | 0 | 80 | 89 | – |
| Cc1ccc(-n2c(C)nc(C)c2-c2c(F)ccc(F)c2F)cc1 [compound 490] | – | – | – | – | – | – | – | Test C disease control rating ([1]; 40 ppm (marked *)): 97* %; Test D disease control rating ([2]; 40 ppm (marked *)): 99* %; Test F disease control rating ([3]; 40 ppm (marked *)): 0* %; Test G disease control rating ([4]; 40 ppm (marked *)): 87* %; Test H disease control rating ([5]; 40 ppm (marked *)): 0* %; Test I disease control rating ([6]; 40 ppm (marked *)): 76* %; Test J disease control rating ([7]; 40 ppm (marked *)): 100* % |
| Cc1nc(Cl)n(-c2ccc(Cl)c(F)c2)c1-c1ccc(Br)cn1 [compound 358] | 99 | 0 | 0 | 90 | 0 | 41 | 0 | – |
| COc1cc(OC)c(Br)c(-n2cnc(Br)c2-c2ccc(Cl)cc2F)c1Cl [compound 642] | – | – | – | – | – | – | – | Test C disease control rating ([1]; 40 ppm (marked *)): 97* %; Test D disease control rating ([2]; 40 ppm (marked *)): 0* %; Test F disease control rating ([3]; 40 ppm (marked *)): 0* %; Test G disease control rating ([4]; 40 ppm (marked *)): 94* %; Test H disease control rating ([5]; 40 ppm (marked *)): 0* %; Test I disease control rating ([6]; 40 ppm (marked *)): 98* %; Test J disease control rating ([7]; 40 ppm (marked *)): 56* % |
| COc1cc(F)c(-c2c(Cl)nc(Br)n2Cc2ccc(C)cc2)c(F)c1 [compound 292] | – | – | – | – | – | – | – | Test C disease control rating ([1]; 200 ppm, 0 = no control): 99%; Test D disease control rating ([2]; 200 ppm, 0 = no control): 98%; Test F disease control rating ([3]; 200 ppm, 0 = no control): 69%; Test G disease control rating ([4]; 200 ppm, 0 = no control): 93%; Test H disease control rating ([5]; 200 ppm, 0 = no control): 11%; Test I disease control rating ([6]; 200 ppm, 0 = no control): 99%; Test J disease control rating ([7]; 200 ppm, 0 = no control): 99% |
| Fc1ccc(F)c(-c2c(Br)nc(Br)n2-c2ccc(Cl)cc2)c1Cl [compound 374] | 99 | 99 | 0 | 94 | 0 | 90 | 98 | – |
| Cc1nn(C)c(Cc2ccc(Cl)cc2)c1-c1ccc(F)cc1Cl [compound 344] | 100 | 0 | 0 | 95 | 17 | 89 | 99 | – |
| CN(C)c1ccc(-n2cnc(Cl)c2-c2c(F)cccc2F)cc1Cl [compound 650] | – | – | – | – | – | – | – | Test C disease control rating ([1]; 40 ppm (marked *)): 0* %; Test D disease control rating ([2]; 40 ppm (marked *)): 0* %; Test F disease control rating ([3]; 40 ppm (marked *)): 0* %; Test G disease control rating ([4]; 40 ppm (marked *)): 0* %; Test H disease control rating ([5]; 40 ppm (marked *)): 9* %; Test I disease control rating ([6]; 40 ppm (marked *)): 0* %; Test J disease control rating ([7]; 40 ppm (marked *)): 0* % |
| Cc1nc(C)n(-c2ccc(F)cc2Cl)c1-c1ccc(Cl)cc1 [compound 307] | 100 | 99 | 0 | 97 | 11 | 97 | 99 | – |
| COc1cc(F)c(-c2c(Cl)ncn2Cc2ccc(Cl)nc2)c(F)c1 [compound 669] | 100 | 100 | 99 | 99 | 73 | 98 | 0 | – |
| COc1cc(F)c(-c2c(Cl)nc(Br)n2-c2ccc(F)c(F)c2)c(F)c1 [compound 484] | 100 | 100 | 89 | 95 | 28 | 100 | 100 | – |
| COc1cc(C#N)cc(F)c1-c1c(Cl)nc(Cl)n1-c1ccc(Cl)c(F)c1 [compound 575] | 96 | 0 | 0 | 73 | 0 | 76 | 72 | – |
| COc1ccc(F)c(-c2c(C)nc(Cl)n2-c2ccc(Cl)nc2)c1F [compound 733] | 100 | 100 | 100 | 100 | 41 | 100 | 100 | – |
| Cn1c(-c2cnc(Cl)n2-c2ccc(Cl)cc2)nc(Cl)c1Br [compound 394] | – | – | – | – | – | – | – | Test C disease control rating [1, 8]: 3* %; Test D disease control rating [2, 8]: 0* %; Test F disease control rating [3, 8]: 0* %; Test G disease control rating [4, 8]: 28* %; Test H disease control rating [5, 8]: 0* %; Test I disease control rating [6, 8]: 45* %; Test J disease control rating [7, 8]: 0* % |

From US20110045101A1, “FUNGICIDAL SUBSTITUTED AZOLES” (E.I. Du Pont De Nemours and Company, priority 2009, published 2011)
